Like-named read-outs stand apart in the source and are kept apart here.
Assays:
[1] = Spectroscopic properties of ZnODPc (absorption, fluorescence); type: physicochemical
Protocol: The fluorescence emission maximum, excited at 703 nm is at 712 nm.
(§1) In this investigation female Balb/c mice 20-22 g bearing a MS-2 fibrosarcoma intramuscularly implanted into the hind right leg were used as an animal model. On the 7th day after transplantation when the tumour diameter was 0.6-0.8 cm and no spontaneous necrosis could be detected, the mice were injected with 1.2 or 2.4 mg/kg ZnODPc incorporated into Cremophor emulsions. The preparation and characterisation of such emulsions has been described by L. Polo et al Cancer Lett. 66: 217-223, 1992. The amount of injected ZnODPc was estimated by diluting a known aliquot of the phthalocyanine-containing emulsion into THF and reading the absorbance at 701 nm (molar absorption coefficient 2.01×10^5 dm^3 mol^-1 cm^-1).

[2] = Singlet oxygen generation (luminescence at 1270 nm); type: physicochemical
Protocol: (§2) Triplet state studies were carried out using laser flash photolysis. Samples were prepared in a 1% pyridine in toluene solution; by preparing such a solution then it is believed that aggregation of the phthalocyanine cores is avoided. The solution was prepared so that an optical density of 0.2-0.3 at the excitation wavelength was obtained. Samples were irradiated by an excimer pumped dye laser at 355 nm and the transients monitored with the use of a quartz halogen lamp. Triplet quantum yields were calculated using ZnTPP and ZnPc as standards. The triplet quantum yield is the quantum yield of conversion from the excited singlet state to the triplet state.
The generation of singlet oxygen by the phthalocyanines was also studied. The method of detection of the singlet oxygen involved measuring the intensity of luminescence at 1270 nm, corresponding to the forbidden transition from the excited singlet back down to the ground state, with a liquid nitrogen cooled germanium detector. Aerated samples were irradiated with the same system as described for the triplet state studies. Standards used were ZnTPP, ZnPc and anthracene.
The data in Table 3 are means of no less than four independent runs, except for compounds 8 and 9 were run once.
The properties of the decomposition products arising from irradiation of the phthalocyanines were investigated.

[3] = Triplet state studies by laser flash photolysis; type: physicochemical; settings: 1% pyridine in toluene, excitation 355 nm; for Triplet Quantum Yield: means of no less than four runs, compounds 8 and 9 run once
Protocol: as §2
Compound example 10 is unsubstituted zinc phthalocyanine (ZnPc); this is included in the Table for means of comparison.
The data in Table 2 are means of no less than four independent runs, except for compounds 8 and 9 which were run once.

[4] = set-up: species or system female Balb/c mice; settings: mouse, in vivo
Protocol: In this investigation female Balb/c mice 20-22 g bearing a MS-2 fibrosarcoma intramuscularly implanted into the hind right leg were used as an animal model. On the 7th day after transplantation when the tumour diameter was 0.6-0.8 cm and no spontaneous necrosis could be detected, the mice were injected with 1.2 or 2.4 mg/kg ZnODPc incorporated into Cremophor emulsions. The preparation and characterisation of such emulsions has been described by L. Polo et al Cancer Lett. 66: 217-223, 1992. The amount of injected ZnODPc was estimated by diluting a known aliquot of the phthalocyanine-containing emulsion into THF and reading the absorbance at 701 nm (molar absorption coefficient 2.01×10^5 dm^3 mol^-1 cm^-1). The tumour-bearing mice were injected with 1.2 mg/kg ZnODPc in the tail vein. At 3 hours and 24 hours after administration, groups of three mice were sacrificed by prolonged exposure to ether vapours, the tumour and selected normal tissues (muscle, skin, liver and kidneys) were excised, washed with phosphate buffered saline (PBS) and assayed for the phthalocyanine content by spectrofluorimetric analysis after chemical extraction, see Reddi et al Br. J. Cancer 61: 407-411, 1990; typically a weighted amount of tissue was homogenized in 3 ml of 2% aqueous sodium dodecyl sulphate (SDS); the homegenate was incubated for 1 hour at room temperature under gentle magnetic stirring and 1 ml of the suspension was added with 2 ml of THF, centrifuged at 10 mins at 3000 rpm; the supernatant was collected and its fluorescence intensity was determined in the 670-770 nm interval (excitation at 650 nm). The fluorescence intensity was converted into ZnODPc concentration by interpolation with a calibration plot. Samples of blood were taken from the sacrificed animals, centrifuged to separate the erythocytes and the serum (50 μl) thus collected was diluted with 2% aqueous SDS (700 μl), added with 1.5 ml of THF and centrifuged for 10 mins at 3000 rpm. The ZnODPc concentration in the supernatant was determined by fluorescence spectroscopy as specified above. Special attention was focussed on the phthalocyanine content in the muscle which is the peritumoural tissue in the animal model exemplified in this study and the skin because of the frequent onset of persistent cutaneous photosensitivity in PDT patients. The determination of ZnODPc accumulation in liver and kidneys can provide useful information on the modality of its elimination from the organism. Analyses were carried out at 3 h intervals after photosensitizer injection and at 24 h which is generally considered to be the usual time interval for PDT treatment.

[5] = test system: MS-2 fibrosarcoma; test: Phototherapeutic studies: tumour response to PDT (visual observation, electron microscopy); type: in vivo, female Balb/c mice
Protocol: as §1
The tumour bearing mice were injected with 2.4 mg/kg ZnODPc and after 24 h were irradiated by 600-700 nm light which was isolated from the emission of a quartz-halogen lamp (Teclas, Lugano Switzerland) by optical filtering. The light beam was focussed into a bundle of optical fibres, whose tip was positioned at a 1 cm distance from the tumour surface. The lamp was operated at 230 mW/cm^2 for a total delivered light dose of 400 J/cm^2.
The tumour response was analyzed by visual observation, as well as by electron microscopy studies on tumour specimens taken at 6 h and 24 h after the end of the PDT. The procedure for the preparation of the samples and ultra structural determinations was performed as described by Milanesi et al. Br. J. Cancer 61: 846-850, 1990.
At the same time endocytoplasmic vacuolisation 6 is frequently observed with some completely necrotic cells and loss of the organised tissue structure.

[6] = ethanolic solution; Valduga et al 1988; cited from earlier work
[7] = Table 3, aerated samples, same system as triplet studies (1% pyridine in toluene), means of no less than four runs, compounds 8 and 9 run once
[8] = irradiation conditions described, in words

For CCCCCCCCCCc1ccc(CCCCCCCCCC)c2c1C1=NC2=Nc2c3c(CCCCCCCCCC)ccc(CCCCCCCCCC)c3c3[n]2[Zn][n]2c(c4c(CCCCCCCCCC)ccc(CCCCCCCCCC)c4c2=NC2=NC(=N3)c3c(CCCCCCCCCC)ccc(CCCCCCCCCC)c32)=N1 [Example 1, 1,4,8,11,15,18,22,25-octakis-decylphthalocyaninato-zinc], the molar absorption coefficient ([1]; THF, 701 nm) was 2.01×10^5 dm^3 mol^-1 cm^-1, the absorption maximum ([1]; cyclohexane) was 703 nm and the “molar absorption coefficient (ε) at the absorption maximum” value ([1]; cyclohexane, 703 nm) was “approximately 2.3×10^5 dm^3 mol^-1 cm^-1”. For the same molecule, the fluorescence emission maximum ([1]; cyclohexane, excited at 703 nm) was 712 nm, the “Singlet Oxygen Quantum Yield” value [2, 7] was 0.73 and the “Singlet Oxygen Quantum Yield” value ([2]; toluene/pyridine solution) was 0.73±0.06. For the same molecule, the “Triplet Lifetime” value [3] was 50 μs, the “Triplet Quantum Yield” value [3] was 0.67 and the accumulation in kidneys [4] was “negligible amounts”. For the same molecule, the liver concentrations [4] was “comparatively low”, the “presence in cutaneous districts (skin)” value [4] was “essentially no phthalocyanine is present” and the “recovery from the peritumoural tissue” value [4] was “No detectable amount”. The “Recovery, Kidney” value ([4]; iv, 1.2 mg/kg, 3 h) was 0.066 ± 0.008 μg of dye/g of tissue, the “Recovery, Liver” value ([4]; iv, 1.2 mg/kg, 3 h) was 0.278 ± 0.053 μg of dye/g of tissue and the “Recovery, Serum” value ([4]; iv, 1.2 mg/kg, 3 h) was 0.436 ± 0.324. The “Recovery, Tumour” value ([4]; iv, 1.2 mg/kg, 3 h) was 0.073 μg of dye/g of tissue, the “Recovery, Kidney” value ([4]; iv, 1.2 mg/kg, 24 h) was 0.O05 ± 0.002 μg of dye/g of tissue and the “Recovery, Liver” value ([4]; iv, 1.2 mg/kg, 24 h) was 0.673 ± 0.140 μg of dye/g of tissue. The “Recovery, Serum” value ([4]; iv, 1.2 mg/kg, 24 h) was 0.042 ± 0.015, the “Recovery, Skin” value ([4]; iv, 1.2 mg/kg, 24 h) was 0.008 ± 0.001 μg of dye/g of tissue and the “Recovery, Tumour” value ([4]; iv, 1.2 mg/kg, 24 h) was 0.132 ± 0.022 μg of dye/g of tissue. The “tumour growth delay compared with untreated tumour-bearing mice” value ([5]; 2.4 mg/kg, irradiated 24 h post-injection, 600-700 nm, 400 J/cm^2) was “significant delay in tumour growth”, the “damage of blood vessels (electron microscopy)” value ([5]; 6 h after irradiation, FIG. 1) was “less heavily damaged” and the “damage of tumour cells (electron microscopy)” value ([5]; 6 h after irradiation, FIG. 1) was “extensive damage of tumour cells”. The “overall appearance of the tumour” value ([5]; 24 h after irradiation) was “deeply haemorrhagic”, the “tissular damage (electron microscopy)” value ([5]; 24 h after irradiation, FIG. 2) was “remarkably more extensive at 24 h after irradiation” and the “damage of cell nuclei” value ([5]; in words) was “extensive damage of cell nuclei”. The “tumour damage upon photoexcitation with red light” value ([5]; in words) was “sufficient for inducing an efficient tumour damage”, the “damage of blood capillaries” value [5, 8] was “appreciable damage of blood capillaries” and the “main target of photosensitization” value [5, 8] was “malignant cells appear to be the main target”.
In the case of CCCCCCCCCCc1ccc(CCCCCCCCCC)c2c1C1=NC2=Nc2c3c(CCCCCCCCCC)ccc(CCCCCCCCCC)c3c3[n]2[Zn][n]2c(c4c(CCCCCCCCCO)ccc(CCCCCCCCCO)c4c2=NC2=NC(=N3)c3c(CCCCCCCCCC)ccc(CCCCCCCCCC)c32)=N1 [Example 9, 1,4-Bis (9-Hydroxynonyl)-8,11,15,18,22,25-Hexadecylphthalocyaninato-Zinc], the “Singlet Oxygen Quantum Yield” value [2, 7] is reported as 0.80 and the “Triplet Quantum Yield” value [3] is reported as 0.70.
In the case of [Zn+2].c1ccc2c(c1)-c1nc-2nc2[n-]c(nc3nc([n-]c4nc(n1)-c1ccccc1-4)-c1ccccc1-3)c1ccccc21 [Example 10, unsubstituted zinc phthalocyanine, reference compound], the “Singlet Oxygen Quantum Yield” value [2, 7] is given as 0.50, the “Triplet Quantum Yield” value [3] is given as 0.45 and the “Singlet Oxygen Quantum Yield” value [6] is given as “approximately 0.4”.

Reference: US6096734A, “Photosensitizers for sensitizing cells” (The Secretary of State for Defence in Her Britannic …, priority 1993, dated 2000)
